Test results taken from US20230416751A1, “MATERIALS AND METHODS FOR TREATING CORNEAL DYSFUNCTION” (UNIVERSITY OF MIAMI, priority 2020, published 2023).

Columns and labels:
[1] = tested on: caspase-1; assay: Caspase-1 ELISA in human corneal endothelial grafts exposed to TNF-α and IFN-γ; type: cell-based; settings: Ac-YVAD-cmk 30 ng/ml, TNF-α 100 ng/ml + IFN-γ 100 ng/ml, 48 hours; vs exposed and control non-exposed grafts, p<0.0001
Procedure: (§1) Endothelial grafts were isolated from corneal tissue grafts stored in Optisol GS (Bausch & Lomb; Rochester, New York, USA) and transferred to 24-well plates in DMEM/F12 medium (Gibco, Invitrogen Thermo Fisher, Carlsbad, CA, USA) supplemented with 5% fetal bovine serum (Gibco, Invitrogen Thermo Fisher, Carlsbad, CA, USA) and incubated at 37° C. for 48 hours to stabilize the cells following hypothermic storage. Medium was replaced and endothelial grafts were treated with TNF-α (100 ng/ml, R&D Systems, Minneapolis, MN, USA) and IFN-γ (100 ng/ml, Systems, Minneapolis, MN, USA)^34 and were incubated at 37° C. for 48 hours. Caspase-1 inhibitor, Ac-YVAD-cmk (30 ng/ml, InvivoGen, San Diego, CA, USA) was used to inhibit the inflammasome in CEC.
(§2) To study the expression of inflammasome signaling proteins in endothelial grafts, cells were treated with TNF-α and IFN-γ for 48 hours. Treated endothelial grafts were placed on […] of lysis buffer with protease inhibitor cocktail (Sigma) and Caspase-1 and […] levels were measure by SimpleStep ELISA™ kit (Abcam; Cambridge, UK) according to the manufacturer's instructions. Caspase-1 and IL-1β protein levels were determined by measuring the fluorescence intensity using a microplate reader (SpectraMax iD3, Molecular Device, San Jose, CA, USA) with excitation and emission wavelengths set at 485 and 535 nm, respectively. […]

[2] = tested on: human CEC; assay: Intracellular ROS detection (DCF-DA) in corneal endothelial grafts exposed to TNF-α and IFN-γ; type: cell-based; settings: Ac-YVAD-cmk 30 ng/ml, 48 hours, p<0.001
Procedure: as §1
Measurement of intracellular ROS levels was performed using a 2,7-dichlorofluorescein diacetate (DCF-DA) Cellular Reactive Oxygen Species Detection Assay Kit (Abcam, Cambridge, UK) according to the manufacturer's instructions as described in^36. Endothelial grafts were incubated with 10 μM DCF-DA at 37° C. for 45 min. Then, ROS level was determined by measuring the fluorescence intensity using a microplate reader (SpectraMax iD3, Molecular Device, San Jose, CA, USA) with excitation and emission wavelengths set at 485 and 535 nm, respectively. Tert-butyl hydrogen peroxide (TBHP) was used as the positive control. […]

[3] = tested on: GSDM-D; assay: GSDM-D immunofluorescence in corneal endothelial grafts exposed to TNF-α and IFN-γ; type: cell-based, human; settings: Ac-YVAD-cmk, TNF-α 100 ng/ml + IFN-γ 100 ng/ml, 48 hours
Procedure: as §1
(§3) Endothelial grafts were fixed with 4% paraformaldehyde for 10 minutes at room temperature and washed with PBS. For immunofluorescence staining, samples were permeabilized with 0.3% Triton X-100 in PBS for 15 minutes and blocked with Image-iT FX signal enhancer (Invitrogen ThermoFisher Scientific; Carlsbad, CA, USA) for 30 minutes at room temperature. Isotype-matched nonspecific IgG antibodies were used as controls. […] Stained samples were examined using an inverted fluorescence microscope (BZ-X800 Analyzer, KEYENCE, Osaka, Japan). Images were analyzed using BZ-X-Analyzer software (KEYENCE, Osaka, Japan).

[4] = tested on: caspase-1; assay: siRNA inflammasome inhibitor in vitro assay: caspase-1 SimpleStep ELISA in HCEC-B4G12 cells; type: cell-based, human; settings: HCEC-B4G12, YVAD 30 ng/ml, TNFα and INFγ, 72 hours; vs positive control cells treated only with TNFα and INFγ
Procedure: HCEC-B4G12 (Human Corneal Endothelial Cell Line) cells were obtained from Leibniz Institute DSMZ and maintained in Endothelial SFM supplemented with FGF 10 ng/ml in a humidified incubator under an atmosphere of 5% CO2/95% air at 37° C. For transfection, cells were seeded in 12 well culture plates until cultures reached 95-100% confluence. The cells were then transfected with 1 μM ASC siRNAs using siPORT NeoFX Transfection Agent (Invitrogen) following the manufacturer protocol.
Transfection efficiency was estimated by assessing the amount of Block-it Alexa Fluor green fluorescent oligonucleotide (Invitrogen) present inside cells in control cultures 24 and 72 hours after transfection. […] Following the 72 hours treated endothelial cells were placed on 150 μL of lysis buffer with protease inhibitor cocktail (Sigma), and caspase-1 levels were measured by SimpleStep ELISA™ kit (Abcam; Cambridge, UK) according to the manufacturer's instructions. Caspase-1 protein levels were determined by measuring the fluorescence intensity using a microplate reader (SpectraMax iD3, Molecular Device, San Jose, CA, USA) with excitation and emission wavelengths set at 485 and 535 nm, respectively. […]
Caspase-1 levels were analyzed by SimpleStep ELISA after 72 hours of treatment with either YVAD (30 ng/ml) or ASC siRNA (1 μM) transfection, both sets of cells underwent inflammation induction with TNFα and INFγ. […]

[5] = tested on: IL-1β; assay: IL-1β ELISA in human corneal endothelial grafts exposed to TNF-α and IFN-γ; type: cell-based; settings: Ac-YVAD-cmk 30 ng/ml, TNF-α 100 ng/ml + IFN-γ 100 ng/ml, 48 hours; vs exposed grafts
Procedure: as §1, §2

[6] = tested on: human CEC; assay: Lactate dehydrogenase (LDH) release assay in corneal endothelial grafts exposed to TNF-α and IFN-γ; type: cell-based; settings: supernatant of grafts exposed to TNF-α and IFN-γ, Ac-YVAD-cmk 30 ng/ml, 48 hours; p<0.05
Procedure: as §1
Cytotoxicity of CEC after TNF-α, IFN-γ treatment was assessed by LDH release assay. LDH release assay was measure using a CytoTox 96® Non-Radioactive Cytotoxicity Assay kit (Promega, Madison, WI, USA) performed according to the manufacturer's instructions as described in^35. The absorbance was measured using a microplate reader (SpectraMax iD3, Molecular Device, San Jose, CA, USA) with excitation and emission wavelengths set at 490 nm.

[7] = tested on: caspase-1; assay: Caspase-1 immunofluorescence in corneal endothelial grafts exposed to TNF-α and IFN-γ; type: cell-based, human; settings: Ac-YVAD-cmk 30 ng/ml, TNF-α 100 ng/ml + IFN-γ 100 ng/ml, 48 hours
Procedure: as §1, §3

caspase-1 levels (ELISA) [1]: significantly lower levels of caspase-1
caspase-1 expression (immunofluorescence) [7]: lower expression of caspase-1
Substance: Ac-YVAD-cmk
ROS levels [2]: significantly downregulated
intracellular (cytoplasmic) immunoreactivity of GSDM-D [3]: inhibited
decrease of caspase-1 levels [4]: about 41%
IL-1β levels (ELISA) [5]: did not show significantly lower levels of IL-1β
LDH levels (LDH release, cell death) [6]: significantly downregulated
